Measured values published in EP2014281A1, “Use of inhibitors of sirtuins and/or ampk for the preparation of a medicament for the treatment of polyalanine diseases” (INSTITUT NATIONAL DE LA SANTE ET DE LA RECHERCHE MEDICALE …, priority 2007, dated 2009).

Experiments:
[1] = tested on: C. elegans transgenics expressing human PABPN1 with 10 or 13 Alas; assay: Muscle nuclei loss (MNL) drug assay in transgenic nematodes, counting GFP positive muscle cell nuclei; format: in vivo; settings: for muscle nuclei loss (MNL) in controls: PABPN1-A10 / control animals; for muscle nuclei loss (MNL) caused by PABPN1-A13 expression: PABPN1-A13 animals, 65 hours at 20°C in liquid culture, maximal achievable rescue 28 %; for genetic dependence of the effect on MNL: PABPN1-A13 animals with null mutation of sir-2.1 (ok434), daf-16 (mu86) or aak-2 (ok524)
Experimental: Analysis of muscle cells. Muscle cells in transgenic hermaphrodites were examined for loss of nuclei through counting GFP positive cells. Percent rescue was calculated as ((test - control)/control*100). Muscle cells in transgenic hermaphrodites were examined for PABPN1 expression through fluorescent microscopy. Whole animals were permeabilized and stained with the PABPN1 antiserum VEADa-14 (Centre de Recherche du CHUM, Montreal; 1:50), and fluorescent microscopy was conducted on a Zeiss microscope (Axioplan Imaging II). Observations of the structure of body wall muscles in young adult transgenics after Phalloidin-Rhodamin (FluoProbes) staining were performed as previously described^51. ANOVA tests and Tukey's Multiple Comparison Test were used for statistics.
(§1) Drug assays. Synchronized populations of L1 larvae expressing GFP and PABPN1 with 10 or 13 Alas were obtained by hypochlorite extraction. To test for muscle nuclei loss, animals were grown in 96-well microtiter plates in 50 µl liquid culture medium with sodium butyrate, resveratrol, sirtinol or splitomicin for 65 hours at 20°C, transferred to agarose pads on slides, and scored for cell nuclei loss at 10X-63X using a Zeiss fluorescence microscope (Axioplan Imaging II). 60 worms were scored per point and three independent assays performed. To test for motility, the synchronized L1 larvae were grown on NGM plates containing drugs until they became 1-5 day old adults. Animals were transferred to new plates every other day to keep them separate from progeny, then transferred to confluent OP-50.1 bacteria test plates and assessed for the number of whole body bends as described above (see Motility assays).

[2] = tested on: C. elegans transgenics expressing human PABPN1 with 10 or 13 Alas; assay: Motility drug assay, number of whole body bends; format: in vivo; settings: for motility in controls: PABPN1-A10 / control animals; for abnormal motility (frequency of body bends) produced by mutant PABPN1: PABPN1-A13 animals, sirtinol and splitomicin at day 5, resveratrol at day 3 of adulthood; for genetic dependence of the effect on abnormal motility: PABPN1-A13 animals with null mutation of sir-2.1 (ok434), daf-16 (mu86) or aak-2 (ok524)
Experimental: Motility assays. 1-5 day old adult hermaphrodites were laid on confluent OP-50-1. The animals were then scored immediately for whole body bends for a duration of 20 seconds as previously described^23, or photos of the tracks were taken using a 2,5X objective on a Zeiss microscope and their amplitudes measured using the Meta View software. 100 animals were scored per experiment and three independent assays performed. Percent rescue of the body bends phenotype was calculated as ((control - test)/control*100) and percent rescue of the sinusoid wave phenotype as ((test - control)/control*100). ANOVA tests and Tukey's Multiple Comparison Tests were used for statistics.
as §1

[3] = tested on: COS-7 cells transfected with normal (10 Alas) and mutant (17 Alas) PABPN1; assay: Histone acetylation analysis by western blot; format: cell-based; settings: COS-7 cells expressing normal or mutant PABPN1, 500 µM or 5 mM for the last 24h
Experimental: (§2) Cell culture and transfection. Twenty-four hours before transfection, COS-7 cells were seeded in Dulbeco's modified Eagle's medium (DMEM) containing 10% fetal calf serum at a concentration of 2 x 10^5 cells per well in 12-well plates suited for the automated live microscopy. The cells were transfected with plasmid DNA (1 µg) pre-complexed with the Plus reagent and diluted in Lipofectamine reagent according to the manufacturer's instructions. To check the protein expression before and after the drug treatment, parallel plates were prepared for Western blotting.
Histone acetylation analysis. COS-7 cells transfected with normal (10 Alas) and mutant (17 Alas) PABPN1 cDNAs were plated for 48h and treated for the last 24h with 500 µM or 5 mM sodium butyrate. Controls included non-butyrate-treated cells. Cells were lysed in 10 mM Tris, 50 mM sodium bisulfite, 1% triton X-100, 10 mM magnesium chloride, 8.6% sucrose, pH 6.5 and a cocktail of proteases inhibitors for 10 min. Proteins were extracted under acidic conditions as described^53. Ten micrograms of whole cell extract were analysed by western blot. […] Signals were quantified using NIH IMAGE 1.62 and t tests used for statistical analysis.

[4] = tested on: COS-7 cells overexpressing GFP-PABPN1 fusion proteins with 0, 10, or 17 Alas; assay: Cell survival by live microscopy of GFP positive cells; format: cell-based; settings: day 5; 0.5 µM resveratrol, 2.5 µM sirtinol
Experimental: as §2
(§3) Drug treatment. Resveratrol and Sirtinol were dissolved in DMSO. In the initial cell treatment experiments, we performed dose-response experiments, using non-transfected cells, to define the most appropriate doses to be used for the drugs. […] The drugs or vehicle as a control were applied on transfected cells 24 h post-transfection. Cells (in the 12-well plate) were then incubated for 24 h before analysis using a Leica automated microscope stage.
Assessment of cell survival. Cell survival was assessed using live microscopy as previously described^12. Briefly, 12-well plates containing transfected cells treated or not treated with drugs were placed on a live stage microscope equipped with a digital camera, CO2 incubation chamber, and a motorized X-Y-axis stage and connected to the Openlab software (Improvision). The microscopic robotic stage allows parallel tracking of multiple fields, both within a single well and in multiple wells. […] The system was set to memorize three different fields of cells (from each separate well) and control the stage return to the same position at pre-fixed intervals. The microscope allowed us to return back to the same point and count the same cells in the field. Cell survival was monitored every 24 h for five consecutive days, with Day 1 corresponding to 24 h post-transfection before the drug treatment. On average, 150 cells per field per construct were counted. Cell viability was assayed by analysis of GFP positive cells. The average of cell survival of each group of cells was scored for the three different chosen fields and percent rescue calculated as ((test - control)/control*100). Three independent experiments were performed. ANOVA tests and Tukey's Multiple Comparison Test were used for statistics.

[5] = tested on: non-transfected cells; assay: Dose-response experiments for cell toxicity; format: cell-based; settings: five days, 0.5 µM resveratrol, 2.5 µM sirtinol
Experimental: as §3

O=C1CCc2c(ccc3ccccc23)O1 [splitomicin, 1,2-Dihydro-3H-naphtho[2,1-b]pyran-3-one]
muscle nuclei loss (MNL) in controls [1]: no effect in controls
muscle nuclei loss (MNL) caused by PABPN1-A13 expression [1]: rescued the MNL
motility in controls [2]: no effect in controls
abnormal motility (frequency of body bends) produced by mutant PABPN1 [2]: rescued the MNL and abnormal motility

CCCC(=O)[O-].[Na+] [sodium butyrate]
muscle nuclei loss (MNL) caused by PABPN1-A13 expression [1]: strong (the maximal achievable rescue is 28 %) rescue
level of acetylation of histone H3 [3]: increased
level of acetylation of histone H4 [3]: increased

CC(NC(=O)c1ccccc1/N=C/c1c(O)ccc2ccccc12)c1ccccc1 (stereo not shown) [sirtinol, 2-[(2-Hydroxynaphthalen-1-yl-methylene)amino]-N-(1-phenethyl)benzamide]
genetic dependence of the effect on MNL [1]: dependent on sir-2.1, daf-16 but not aak-2
muscle nuclei loss (MNL) caused by PABPN1-A13 expression [1]: dose-dependent rescue of MNL
motility in controls [2]: no effect detected
genetic dependence of the effect on abnormal motility [2]: dependent on sir-2.1 and daf-16
abnormal motility (frequency of body bends) produced by mutant PABPN1 [2]: rescued abnormal motility
cell survival in cells overexpressing GFP-PABPN1 with 0 and 10 Alas [4]: no effects
cell survival in mutant PABPN1-A17 cells [4]: strongly enhanced cell survival

Oc1ccc(C=Cc2cc(O)cc(O)c2)cc1 [resveratrol]
muscle nuclei loss (MNL) in controls [1]: no effect in PABPN1-A10 animals
genetic dependence of the effect on MNL [1]: mediated by sir-2.1 and aak-2
muscle nuclei loss (MNL) caused by PABPN1-A13 expression [1]: enhanced MNL
genetic dependence of the effect on abnormal motility [2]: daf-16 independent and sir-2.1 and aak-2 dependent
abnormal motility (frequency of body bends) produced by mutant PABPN1 [2]: enhancement of abnormal motility
cell toxicity [5]: did not cause cell toxicity
cell survival in cells overexpressing GFP-PABPN1 with 0 and 10 Alas [4]: no effects
cell survival in mutant PABPN1-A17 cells [4]: slightly decreased cell survival
